The results in this text go back to patent US8846720B2, “Pest controlling composition and method for controlling pest” (Sumitomo Chemical Company, Limited, priority 2010, dated 2014).

This experiment has as its system gray mold fungus (Botrytis cinerea). Put plainly: Cucumber leaf disk preventive test against gray mold fungus. Format: in vivo. The conditions noted are these: 15° C., six days. On the procedure:
True leaf of cucumber was punched out with cork borer to 13 mm in diameter to prepare a leaf disk. In 24 well microwell plate that was dispensed with 1 ml 0.8% water agar, the leaf disk was placed such that the upper side of the leaf was in an upward direction. […] Control where 20 micro liter ion-exchange water was spread was prepared (for non-treated group). After confirming that the spray solution was dried, conidium of gray mold fungus (Botrytis cinerea) was suspended into potato dextrose broth (DIFCO) in a density of about 10^5 conidia/mL and was then subjected to a spray inoculation. After leaving to stand the leaf disk in a growth chamber set up at 15° C. for six days, an onset area on each leaf was measured and a preventive value was then calculated by the following equation 1.
The same above operations were carried out using the present diamide compound (2c) or the present diamide compound (3) instead of the present diamide compound (2b), so as to obtain the respective preventive values. Preventive value(%)=100×(A−B)/A (Equation 1)
A: an onset area rate of plant belonging to non-treated group
B: an onset area rate of plant belonging to treated Group onset area rate=(onset area of the leaf disk)/(the total area of the leaf disk) […]

`CNC(=O)C(OC)c1ccccc1COc1cc(C)ccc1C` (centres unmarked) [the present amide compound]: the “preventive value (%)” value was determined as 46% (the present amide compound alone 1.0 ppm (dimethyl sulfoxide solution)) and 56% (the present amide compound alone 2.5 ppm (dimethyl sulfoxide solution)).
